Results taken from article PMC10017518, “Structural basis for bacterial energy extraction from atmospheric hydrogen” (Nature, 2023).

Key:
Huc = biological target: T1, Huc (Mycolicibacterium smegmatis, UniProt A0QUM6+A0QUM7); assay: H2 electrode and gas chromatography of H2 consumption; type: biochemical; settings: H2 as donor, 50 mM Tris, 150 mM NaCl, pH 8.0
T1 construct: gene hybA; native host purification, chromosomal N-terminal 2×StrepII tag on HucS, tag kept; 833 kDa oligomer of four HucS2L2 lobes on a HucM tetramer; HucL ~58, HucS ~39, HucM ~18 kDa; with Group 2a [NiFe] hydrogenase large subunit HucL; Huc scaffold and stalk protein HucM
T1 sequence (A0QUM6 2-323): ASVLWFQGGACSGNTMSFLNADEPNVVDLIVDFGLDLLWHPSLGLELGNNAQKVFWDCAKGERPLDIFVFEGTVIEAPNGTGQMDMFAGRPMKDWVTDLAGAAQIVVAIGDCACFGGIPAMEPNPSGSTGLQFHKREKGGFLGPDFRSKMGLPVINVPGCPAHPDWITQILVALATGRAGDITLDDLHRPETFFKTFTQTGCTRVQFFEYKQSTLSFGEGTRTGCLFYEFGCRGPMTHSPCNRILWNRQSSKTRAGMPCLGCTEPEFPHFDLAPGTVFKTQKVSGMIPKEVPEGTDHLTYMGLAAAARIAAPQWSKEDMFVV
T1 sequence (A0QUM7 2-516): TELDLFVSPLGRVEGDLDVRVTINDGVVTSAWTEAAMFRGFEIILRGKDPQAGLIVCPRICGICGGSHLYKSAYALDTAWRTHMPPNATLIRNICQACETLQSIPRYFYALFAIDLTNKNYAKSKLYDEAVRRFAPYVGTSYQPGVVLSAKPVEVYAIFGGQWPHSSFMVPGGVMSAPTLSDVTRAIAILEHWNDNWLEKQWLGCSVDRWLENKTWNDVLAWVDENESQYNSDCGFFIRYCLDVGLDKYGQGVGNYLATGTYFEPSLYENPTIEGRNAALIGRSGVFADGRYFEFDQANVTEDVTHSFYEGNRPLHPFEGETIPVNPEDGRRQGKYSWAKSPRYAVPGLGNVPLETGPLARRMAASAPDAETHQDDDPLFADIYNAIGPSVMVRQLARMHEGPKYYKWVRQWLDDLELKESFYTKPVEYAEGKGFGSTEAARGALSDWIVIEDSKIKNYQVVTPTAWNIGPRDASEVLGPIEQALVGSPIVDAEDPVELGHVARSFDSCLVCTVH
T1 sequence (A0QUM5 1-189 partner): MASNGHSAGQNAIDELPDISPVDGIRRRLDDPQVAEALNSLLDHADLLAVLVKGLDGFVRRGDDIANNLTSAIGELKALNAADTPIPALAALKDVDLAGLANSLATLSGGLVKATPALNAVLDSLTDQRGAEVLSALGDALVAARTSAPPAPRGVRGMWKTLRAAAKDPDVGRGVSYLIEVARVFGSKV

[1] = biological target: Huc protomer (HucSL heterodimer) (Mycobacterium smegmatis mc2155); assay: cryo-EM structure; single-particle reconstruction of the purified Huc oligomer (2.19 Å overall) and of the individual HucS2L2 lobe (1.52 Å and 1.67 Å)
[2] = biological target: the molecule itself; assay: as above

CC1=CC(=O)c2ccccc2C1=O [menadione]
H2 electrode and gas chromatography of H2 consumption (Huc; 200 µM menadione as electron acceptor): Huc displayed a much higher maximum velocity with menadione

COc1cc(-c2ccc(-n3nc(-c4ccccc4)n[n+]3-c3ccc([N+](=O)[O-])cc3)c(OC)c2)ccc1-n1nc(-c2ccccc2)n[n+]1-c1ccc([N+](=O)[O-])cc1 [nitro blue tetrazolium]
H2 electrode and gas chromatography of H2 consumption (Huc; 200 µM NBT as electron acceptor): using nitro blue tetrazolium (NBT) or the quinone analogue menadione as the electron acceptor

Huc protomer (HucSL heterodimer) (complex)
stoichiometry N [1]: 2

B1: HucM (MSMEG_2261), scaffold subunit of the Mycobacterium smegmatis hydrogenase Huc (natural protein, Mycobacterium smegmatis mc2155, UniProt A0QUM5 1-189, looked up)
chain: MASNGHSAGQNAIDELPDISPVDGIRRRLDDPQVAEALNSLLDHADLLAVLVKGLDGFVRRGDDIANNLTSAIGELKALNAADTPIPALAALKDVDLAGLANSLATLSGGLVKATPALNAVLDSLTDQRGAEVLSALGDALVAARTSAPPAPRGVRGMWKTLRAAAKDPDVGRGVSYLIEVARVFGSKV
notes: HucM, uncharacterized protein MSMEG_2261 encoded directly upstream of hucS in the huc operon, Mycobacterium smegmatis mc2155; approximately 18 kDa; 188 amino acids printed (residues 80 to 189 are also printed); only residues 20-79 modelled in the cryo-EM map; source: M. smegmatis mc2155 PRC1 HucS-2×StrII, endogenous; in cell lysate and co-purified with HucS (StrepTrap, Superose 6)
stoichiometry N [2]: 4
